Assay results taken from the kinase profiling compilation of Christmann-Franck et al. (2016).

What was measured:
Test in all cases: radiometric filter-binding kinase assay, Kinase HotSpot
Conditions in all cases: compound 0.5 µM; ATP 10 µM
[1] = biological target: JAK1 JH1 catalytic (human) (UniProt P23458)
[2] = biological target: EGFR (human) (UniProt P00533)
[3] = biological target: STK4 (human) (UniProt Q13043)
[4] = biological target: CSNK1A1 (human) (UniProt P48729)
[5] = biological target: MAP3K10 (human) (UniProt Q02779)
[6] = biological target: WNK3 (human) (UniProt Q9BYP7)
[7] = biological target: TSSK1B (human) (UniProt Q9BXA7)
[8] = biological target: PRKD3 (human) (UniProt O94806)
[9] = biological target: GSK3B (human) (UniProt P49841)
[10] = biological target: PDGFRA (human) (UniProt P16234)
[11] = biological target: MUSK (human) (UniProt O15146)
[12] = biological target: RPS6KA5 KD2 (human) (UniProt O75582)
[13] = biological target: PRKCE (human) (UniProt Q02156)
[14] = biological target: CAMK2B (human) (UniProt Q13554)
[15] = biological target: MAP3K11 (human) (UniProt Q16584)
[16] = biological target: MERTK (human) (UniProt Q12866)
[17] = biological target: RPS6KA1 KD1 KD2 (human) (UniProt Q15418)
[18] = biological target: CAMKK1 (human) (UniProt Q8N5S9)
[19] = biological target: ROS1 (human) (UniProt P08922)
[20] = biological target: CDK4 CCND3 (human) (UniProt P30281+P11802)
[21] = biological target: MAP4K5 (human) (UniProt Q9Y4K4)
[22] = biological target: PKN2 (human) (UniProt Q16513)
[23] = biological target: TYRO3 (human) (UniProt Q06418)
[24] = biological target: RPS6KA6 KD1 KD2 (human) (UniProt Q9UK32)
[25] = biological target: MAPK1 (human) (UniProt P28482)
[26] = biological target: MYLK2 (human) (UniProt Q9H1R3)
Sequence of MYLK2 (human) (Q9H1R3 whole entry, looked up): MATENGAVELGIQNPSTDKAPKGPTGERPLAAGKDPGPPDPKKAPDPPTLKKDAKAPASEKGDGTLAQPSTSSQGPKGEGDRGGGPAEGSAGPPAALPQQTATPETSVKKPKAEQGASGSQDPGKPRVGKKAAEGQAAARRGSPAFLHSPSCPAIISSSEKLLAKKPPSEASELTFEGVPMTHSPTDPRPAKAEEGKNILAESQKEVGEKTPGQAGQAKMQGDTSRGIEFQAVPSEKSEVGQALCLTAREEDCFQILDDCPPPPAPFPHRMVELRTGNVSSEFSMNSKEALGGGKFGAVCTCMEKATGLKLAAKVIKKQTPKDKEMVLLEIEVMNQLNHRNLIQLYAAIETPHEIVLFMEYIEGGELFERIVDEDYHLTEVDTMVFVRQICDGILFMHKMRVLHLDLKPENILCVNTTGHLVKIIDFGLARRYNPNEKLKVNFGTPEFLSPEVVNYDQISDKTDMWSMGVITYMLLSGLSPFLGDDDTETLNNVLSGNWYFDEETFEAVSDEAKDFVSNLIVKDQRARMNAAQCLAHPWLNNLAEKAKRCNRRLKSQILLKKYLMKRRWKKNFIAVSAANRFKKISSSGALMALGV

[27] = biological target: SRPK1 (human) (UniProt Q96SB4)
[28] = biological target: PTK6 (human) (UniProt Q13882)
[29] = biological target: WEE1 (human) (UniProt P30291)
Sequence of WEE1 (human) (P30291 whole entry, looked up): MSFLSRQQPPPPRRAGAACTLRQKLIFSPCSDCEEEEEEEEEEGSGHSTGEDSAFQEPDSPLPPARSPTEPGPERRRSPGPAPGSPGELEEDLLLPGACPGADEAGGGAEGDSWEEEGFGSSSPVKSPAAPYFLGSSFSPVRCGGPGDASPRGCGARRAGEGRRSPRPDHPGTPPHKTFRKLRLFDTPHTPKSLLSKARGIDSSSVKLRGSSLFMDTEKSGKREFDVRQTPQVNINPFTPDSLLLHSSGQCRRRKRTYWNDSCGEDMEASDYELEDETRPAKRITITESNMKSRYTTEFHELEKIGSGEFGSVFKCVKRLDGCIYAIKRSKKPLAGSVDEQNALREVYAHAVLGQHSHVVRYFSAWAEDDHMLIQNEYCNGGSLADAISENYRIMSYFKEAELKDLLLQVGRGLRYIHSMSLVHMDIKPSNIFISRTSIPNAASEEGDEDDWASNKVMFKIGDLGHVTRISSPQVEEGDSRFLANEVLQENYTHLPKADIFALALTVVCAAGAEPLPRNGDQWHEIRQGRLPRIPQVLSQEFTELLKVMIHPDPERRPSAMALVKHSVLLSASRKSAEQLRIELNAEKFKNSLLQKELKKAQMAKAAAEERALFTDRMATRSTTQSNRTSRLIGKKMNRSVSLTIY

[30] = biological target: MAPK11 (human) (UniProt Q15759)
[31] = biological target: MLTK (human) (UniProt Q9NYL2)
Sequence of MLTK (human) (Q9NYL2 whole entry, looked up): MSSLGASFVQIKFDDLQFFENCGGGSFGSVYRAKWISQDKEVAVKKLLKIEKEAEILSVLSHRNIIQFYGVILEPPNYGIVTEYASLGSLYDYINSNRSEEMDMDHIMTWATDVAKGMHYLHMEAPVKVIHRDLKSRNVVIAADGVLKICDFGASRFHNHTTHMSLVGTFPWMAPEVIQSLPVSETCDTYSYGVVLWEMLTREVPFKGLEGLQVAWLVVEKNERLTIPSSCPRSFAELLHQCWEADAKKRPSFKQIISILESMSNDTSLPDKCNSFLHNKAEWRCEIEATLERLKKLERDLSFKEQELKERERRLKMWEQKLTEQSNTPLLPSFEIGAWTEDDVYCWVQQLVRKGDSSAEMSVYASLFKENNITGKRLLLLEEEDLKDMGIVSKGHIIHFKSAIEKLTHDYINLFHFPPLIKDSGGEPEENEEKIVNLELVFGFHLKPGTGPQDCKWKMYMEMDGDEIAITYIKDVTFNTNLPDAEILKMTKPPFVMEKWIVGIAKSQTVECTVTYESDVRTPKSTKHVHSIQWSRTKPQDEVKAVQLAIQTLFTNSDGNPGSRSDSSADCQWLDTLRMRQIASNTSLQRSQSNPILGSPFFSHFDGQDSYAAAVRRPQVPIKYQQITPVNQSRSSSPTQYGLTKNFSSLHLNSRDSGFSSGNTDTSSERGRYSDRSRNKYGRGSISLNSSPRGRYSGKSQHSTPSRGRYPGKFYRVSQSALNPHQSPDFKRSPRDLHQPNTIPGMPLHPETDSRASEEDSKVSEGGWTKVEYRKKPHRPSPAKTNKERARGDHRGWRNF

[32] = biological target: CDK9 CCNK (human) (UniProt O75909+P50750)
[33] = biological target: JAK2 JH1 JH2 (human) (UniProt O60674)
Sequence of JAK2 JH1 JH2 (human) (O60674 whole entry, looked up): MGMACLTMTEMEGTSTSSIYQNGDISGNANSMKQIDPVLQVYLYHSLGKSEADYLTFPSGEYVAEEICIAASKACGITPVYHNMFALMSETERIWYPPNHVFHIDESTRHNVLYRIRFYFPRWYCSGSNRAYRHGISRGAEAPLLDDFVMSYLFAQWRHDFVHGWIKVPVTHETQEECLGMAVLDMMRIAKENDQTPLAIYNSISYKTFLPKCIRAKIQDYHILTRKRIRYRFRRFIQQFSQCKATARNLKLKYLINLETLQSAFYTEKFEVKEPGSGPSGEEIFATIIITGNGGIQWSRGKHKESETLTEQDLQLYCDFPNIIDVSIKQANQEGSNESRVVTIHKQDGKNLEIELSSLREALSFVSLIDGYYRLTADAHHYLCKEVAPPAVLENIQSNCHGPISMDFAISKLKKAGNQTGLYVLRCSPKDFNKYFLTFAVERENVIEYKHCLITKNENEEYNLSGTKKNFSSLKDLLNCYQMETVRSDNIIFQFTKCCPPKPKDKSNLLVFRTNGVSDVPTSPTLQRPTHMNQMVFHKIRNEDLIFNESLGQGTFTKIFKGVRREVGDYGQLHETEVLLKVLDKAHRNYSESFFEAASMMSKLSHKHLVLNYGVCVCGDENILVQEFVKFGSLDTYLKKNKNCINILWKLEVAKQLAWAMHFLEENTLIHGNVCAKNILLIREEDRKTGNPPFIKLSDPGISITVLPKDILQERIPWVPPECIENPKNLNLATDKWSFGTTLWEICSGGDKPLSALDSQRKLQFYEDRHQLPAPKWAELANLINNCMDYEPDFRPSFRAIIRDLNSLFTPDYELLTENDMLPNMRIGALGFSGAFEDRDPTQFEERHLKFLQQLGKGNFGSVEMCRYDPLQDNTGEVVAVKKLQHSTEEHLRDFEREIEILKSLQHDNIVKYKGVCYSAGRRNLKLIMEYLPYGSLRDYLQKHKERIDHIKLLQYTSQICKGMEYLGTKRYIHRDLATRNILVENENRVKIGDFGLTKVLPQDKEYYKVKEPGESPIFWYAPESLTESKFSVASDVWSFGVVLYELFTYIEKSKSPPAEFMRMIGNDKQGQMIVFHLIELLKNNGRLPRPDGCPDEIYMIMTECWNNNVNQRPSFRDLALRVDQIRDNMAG

[34] = biological target: FGFR1 (human) (UniProt P11362)
[35] = biological target: PKN1 (human) (UniProt Q16512)
[36] = biological target: EPHA5 (human) (UniProt P54756)
Sequence of EPHA5 (human) (P54756 whole entry, looked up): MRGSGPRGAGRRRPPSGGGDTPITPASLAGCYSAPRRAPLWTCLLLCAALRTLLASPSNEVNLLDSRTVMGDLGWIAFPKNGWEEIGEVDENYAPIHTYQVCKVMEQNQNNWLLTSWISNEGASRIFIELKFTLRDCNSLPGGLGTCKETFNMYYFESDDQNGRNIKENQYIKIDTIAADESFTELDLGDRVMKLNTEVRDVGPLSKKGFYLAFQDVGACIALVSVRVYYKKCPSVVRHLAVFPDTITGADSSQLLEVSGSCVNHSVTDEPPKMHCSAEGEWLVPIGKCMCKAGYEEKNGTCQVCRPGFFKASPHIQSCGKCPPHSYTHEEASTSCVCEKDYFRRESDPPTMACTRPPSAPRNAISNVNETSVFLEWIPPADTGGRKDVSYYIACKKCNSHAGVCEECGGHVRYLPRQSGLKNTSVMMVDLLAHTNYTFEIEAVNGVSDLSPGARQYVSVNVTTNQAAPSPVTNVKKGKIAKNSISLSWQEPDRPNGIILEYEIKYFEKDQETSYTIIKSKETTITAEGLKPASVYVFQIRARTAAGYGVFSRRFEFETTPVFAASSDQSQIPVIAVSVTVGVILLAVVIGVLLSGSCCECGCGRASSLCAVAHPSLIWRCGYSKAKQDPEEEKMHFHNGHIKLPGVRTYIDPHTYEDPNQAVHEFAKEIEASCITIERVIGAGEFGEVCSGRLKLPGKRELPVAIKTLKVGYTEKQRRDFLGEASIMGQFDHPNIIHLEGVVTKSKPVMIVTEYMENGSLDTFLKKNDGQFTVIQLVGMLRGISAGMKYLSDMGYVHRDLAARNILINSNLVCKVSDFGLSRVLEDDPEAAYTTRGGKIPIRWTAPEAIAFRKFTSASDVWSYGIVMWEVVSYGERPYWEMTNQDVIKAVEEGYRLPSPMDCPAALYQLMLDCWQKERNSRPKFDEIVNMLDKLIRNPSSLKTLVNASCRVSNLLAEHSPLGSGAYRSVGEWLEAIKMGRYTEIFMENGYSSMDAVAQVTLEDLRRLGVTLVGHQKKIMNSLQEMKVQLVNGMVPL

[37] = biological target: SRMS (human) (UniProt Q9H3Y6)
[38] = biological target: NEK2 (human) (UniProt P51955)
Sequence of NEK2 (human) (P51955 whole entry, looked up): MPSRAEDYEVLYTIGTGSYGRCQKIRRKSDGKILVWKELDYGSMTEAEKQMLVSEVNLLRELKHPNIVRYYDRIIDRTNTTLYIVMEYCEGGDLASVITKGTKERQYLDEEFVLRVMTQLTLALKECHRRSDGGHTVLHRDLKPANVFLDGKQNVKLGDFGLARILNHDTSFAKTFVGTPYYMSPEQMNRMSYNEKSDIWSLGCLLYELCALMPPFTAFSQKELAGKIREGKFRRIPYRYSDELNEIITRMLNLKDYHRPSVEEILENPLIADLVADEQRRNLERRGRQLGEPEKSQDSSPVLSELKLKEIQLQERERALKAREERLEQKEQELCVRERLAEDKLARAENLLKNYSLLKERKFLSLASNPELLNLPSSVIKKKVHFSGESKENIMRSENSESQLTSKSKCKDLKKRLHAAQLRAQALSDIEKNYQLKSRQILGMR

[39] = biological target: IKBKE (human) (UniProt Q14164)
[40] = biological target: MAPKAPK3 (human) (UniProt Q16644)
Sequence of MAPKAPK3 (human) (Q16644 whole entry, looked up): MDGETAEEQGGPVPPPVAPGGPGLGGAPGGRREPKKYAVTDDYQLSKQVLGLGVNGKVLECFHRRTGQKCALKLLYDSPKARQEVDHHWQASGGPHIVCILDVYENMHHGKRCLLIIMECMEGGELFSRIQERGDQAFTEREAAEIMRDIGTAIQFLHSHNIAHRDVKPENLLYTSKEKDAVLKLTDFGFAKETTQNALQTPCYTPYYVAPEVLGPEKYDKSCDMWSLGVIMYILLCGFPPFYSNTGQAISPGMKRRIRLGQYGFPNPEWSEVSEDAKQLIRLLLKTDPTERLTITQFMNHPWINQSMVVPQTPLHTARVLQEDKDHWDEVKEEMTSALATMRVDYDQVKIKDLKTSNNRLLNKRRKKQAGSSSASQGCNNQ

[41] = biological target: BRSK1 (human) (UniProt Q8TDC3)

Nc1nnc2[nH]c3ccccc3nc1-2
residual activity [1]: 99.8% | residual activity [2]: 96.4% | residual activity [3]: 94.5% | residual activity [4]: 101% | residual activity [5]: 93.1% | residual activity [6]: 98% | residual activity [7]: 95.4% | residual activity [8]: 87.3% | residual activity [9]: 99.7% | residual activity [10]: 103% | residual activity [11]: 82.6% | residual activity [12]: 92.4% | residual activity [13]: 86.4% | residual activity [14]: 90% | residual activity [15]: 96.3% | residual activity [16]: 92.9% | residual activity [17]: 97.9% | residual activity [18]: 112% | residual activity [19]: 106% | residual activity [20]: 94.8% | residual activity [21]: 96.8% | residual activity [22]: 98.7% | residual activity [23]: 101% | residual activity [24]: 94.2% | residual activity [25]: 100% | residual activity [26]: 90.5% | residual activity [27]: 101% | residual activity [28]: 84.1% | residual activity [29]: 101% | residual activity [30]: 93.8% | residual activity [31]: 96.3% | residual activity [32]: 88.3% | residual activity [33]: 105% | residual activity [34]: 93.9% | residual activity [35]: 92% | residual activity [36]: 90.3% | residual activity [37]: 88.5% | residual activity [38]: 99.6% | residual activity [39]: 99.4% | residual activity [40]: 101% | residual activity [41]: 91.5%

O=C1NC(=O)C(c2cn(CCCO)c3ncccc23)=C1c1cnccn1
residual activity [1]: 117% | residual activity [2]: 95.9% | residual activity [3]: 83.6% | residual activity [4]: 67% | residual activity [5]: 91.3% | residual activity [6]: 91.3% | residual activity [7]: 94.9% | residual activity [8]: 78.2% | residual activity [9]: 25.2% | residual activity [10]: 113% | residual activity [11]: 67.1% | residual activity [12]: 73.9% | residual activity [13]: 102% | residual activity [14]: 97.6% | residual activity [15]: 80.8% | residual activity [16]: 78.7% | residual activity [17]: 94.8% | residual activity [18]: 107% | residual activity [19]: 106% | residual activity [20]: 95.9% | residual activity [21]: 37.5% | residual activity [22]: 83.3% | residual activity [23]: 93.7% | residual activity [24]: 73% | residual activity [25]: 81.9% | residual activity [26]: 81.1% | residual activity [27]: 98% | residual activity [28]: 101% | residual activity [29]: 96.2% | residual activity [30]: 105% | residual activity [31]: 96.4% | residual activity [32]: 89.5% | residual activity [33]: 97.8% | residual activity [34]: 81.2% | residual activity [35]: 97.8% | residual activity [36]: 99.4% | residual activity [37]: 95.9% | residual activity [38]: 97.5% | residual activity [39]: 90% | residual activity [40]: 103% | residual activity [41]: 89.2%
